Test results from article doi:10.1101/2025.03.14.643404, “A Bivalent Molecular Glue Linking Lysine Acetyltransferases to Oncogene-induced Cell Death” (bioRxiv, 2025).

How the values were obtained:
H2BK20ac = assay: ChIP-seq for H2BK20ac in SUDHL5; format: cell-based, human; conditions: SUDHL5, 1 nM, 1 hour
Description: 25–30 million cells were treated with TCIP3 or DMSO for indicated timepoints. Cells were washed in PBS containing TCIP3 or DMSO and crosslinked for 11 min in CiA Fix Buffer (50 mM HEPES pH 8.0, 1 mM EDTA, 0.5 mM EGTA, 100 mM NaCl) with addition of formaldehyde to a final concentration of 1%. The crosslinking reaction was quenched by glycine added at 0.125 M final concentration. Crosslinked cells were centrifuged at 1,000 × g for 5 min. […] Library size distributions were confirmed using an Agilent Bioanalyzer and High Sensitivity DNA reagents (Agilent 5067) and concentrations determined by qPCR. […]
The data quality was checked using fastq (https://www.bioinformatics.babraham.ac.uk/projects/fastqc/). The raw reads were trimmed from adapters with cutadapt (parameters: -a […] -A […]) and raw reads were aligned to hg38 human genome assembly using bowtie2 (parameters: --local --maxins 1000). Low quality reads, duplicated reads and reads with multiple alignments were removed using samtools[120] and Picard (https://broadinstitute.github.io/picard/). macs2[121] was used to map position of peaks with FDR cutoff of 0.05. […] All browser tracks and metaprofiles shown were calculated with sequence-depth-normalized, replicate-merged (bigWigMerge[125]) and, for ChIP-seq, input-subtracted data (deeptools bigWigCompare). […]

DB = assay: Cell viability, 7 days compound treatment (Cell Titer-Glo), DB; format: cell-based; conditions: Homo sapiens, 168 h, read-out: IC50 of antiproliferation
Description: Fifteen thousand cells were seeded in 100 μl of media per well of a U-bottom 96-well plate and treated with digitally dispensed drugs (Tecan D300e) for the indicated times and doses. After 96 hours, plates were centrifuged for 750 rpm for 3 minutes, and old media was exchanged for 100 μl of fresh media. Drug treatment was then repeated at the indicated doses. 72 hours following media change, cells were transferred to 96 well flat-bottom opaque plates. Viability was measured by adding 25 μL Cell Titer-Glo reagent (Promega G7570) to each well and luminescence was measured (BMG Labtech Pherastar FS). The background luminescence was subtracted, and the signal was normalized to DMSO-treated cells. IC50 measurements on cell lines were calculated using at least three biological replicates by separate cell passages. Fit of dose–response curves to data and statistical analysis was performed using GraphPad PRISM using the four-parameter log(inhibitor) vs response function.

CNC(=O)COc1cc2cc(Nc3nc(N4CCC(C(=O)N5CCN(CCC(=O)N6CCC(n7nc(N8CCCc9cc(-c%10cnn(C)c%10)c(C(F)F)cc98)c8c7CCN(C(=O)NC)C8)CC6)CC5)CC4)ncc3Cl)cc(OC)c2n(C)c1=O [TCIP3]
H2BK20ac peaks gained (H2BK20ac): 936 | H2BK20ac peaks lost (H2BK20ac): 4,346 | IC50 (DB): 9.8 nM
